Measurements reported in patent publication US20030078251A1, “Benzoxazepinones and their use as squalene synthase inhibitors” (priority 2000, published 2003).

Structure (SMILES)	melting point
COc1cccc([C@H]2O[C@H](CC(=O)Nc3ccc(CC(=O)O)cc3)C(=O)N(CC(C)(C)CO)c3ccc(Cl)cc32)c1OC [Example 31, 4-[[(3R,5S)-7-chloro-5-(2,3-dimethoxyphenyl)-1-(3-hydroxy-2,2-dimethylpropyl)-2-oxo-1,2,3,5-tetrahydro-4,1-benzoxazepin-3-yl]acetyl]aminophenylacetic acid]	142 to 144 °C
COc1cccc([C@H]2O[C@H](CC(=O)Nc3cccc(CCCC(=O)O)c3)C(=O)N(CC(C)(C)CO)c3ccc(Cl)cc32)c1OC [Example 111, 4-[3-[[[(3R,5S)-7-Chloro-5-(2,3-dimethoxyphenyl)-1-(3-hydroxy-2,2-dimethylpropyl)-2-oxo-1,2,3,5-tetrahydro-4,1-benzoxazepin-3-yl]acetyl]amino]phenyl]butanoic acid]	119 to 122 °C
COc1cccc([C@H]2O[C@H](CC(=O)Nc3ccc(OCCCc4ccccc4)c(CCC(=O)O)c3)C(=O)N(CC(C)(C)CO)c3ccc(Cl)cc32)c1OC [Example 124, 3-[5-[[[(3R,5S)-7-Chloro-5-(2,3-dimethoxyphenyl)-1-(3-hydroxy-2,2-dimethylpropyl)-2-oxo-1,2,3,5-tetrahydro-4,1-benzoxazepin-3-yl]acetyl]amino]-2-(3-phenylpropyloxy)phenyl]propionic Acid]	147 to 149 °C
COc1ccc(C(=O)O)cc1NC(=O)C[C@H]1O[C@H](c2cccc(OC)c2OC)c2cc(Cl)ccc2N(CC(C)(C)CO)C1=O [Example 102, 3-[[(3R,5S)-7-Chloro-5-(2,3-dimethoxyphenyl)-1-(3-hydroxy-2,2-dimethylpropyl)-2-oxo-1,2,3,5-tetrahydro-4,1-benzoxazepin-3-yl]acetyl]amino-4-methoxybenzoic acid]	171 to 173 °C
COc1cccc([C@H]2O[C@H](CC(=O)Nc3cc(CCC(=O)O)ccc3OC(C)C)C(=O)N(CC(C)(C)CO)c3ccc(Cl)cc32)c1OC [Example 51, 3-[3-[[[(3R,5S)-7-chloro-5-(2,3-dimethoxyphenyl)-1-(3-hydroxy-2,2-dimethylpropyl)-2-oxo-1,2,3,5-tetrahydro-4,1-benzoxazepin-3-yl]acetyl]amino]-4-isopropoxyphenyl]propionic Acid]	133 to 136 °C

Further lines, results first:

melting point	Structure (SMILES)
117 to 119 °C	COc1cccc([C@H]2O[C@H](CC(=O)Nc3cccc(CCCCC(=O)O)c3)C(=O)N(CC(C)(C)CO)c3ccc(Cl)cc32)c1OC [Example 135, 5-[3-[[[(3R,5S)-7-Chloro-5-(2,3-dimethoxyphenyl)-1-(3-hydroxy-2,2-dimethylpropyl)-2-oxo-1,2,3,5-tetrahydro-4,1-benzoxazepin-3-yl]acetyl]amino]phenyl]pentanoic acid]
225 to 226 °C (dec.)	COc1ccc(C(C)(C)C(=O)O)cc1NC(=O)C[C@H]1O[C@H](c2cccc(OC)c2OC)c2cc(Cl)ccc2N(CC(C)(C)CO)C1=O [Example 137, 2-[3-[[2-[(3R,5S)-7-Chloro-5-(2,3-dimethoxyphenyl)-1-(3-hydroxy-2,2-dimethylpropyl)-2-oxo-1,2,3,5-tetrahydro-4,1-benzoxazepin-3-yl]acetyl]amino]-4-methoxyphenyl]-2,2-dimethylacetic acid]
200.5 to 200.6 °C	COc1cccc([C@H]2O[C@H](CC(=O)Nc3ccc4[nH]c(C(=O)O)cc4c3)C(=O)N(CC(C)(C)CO)c3ccc(Cl)cc32)c1OC [Example 157]
265 to 270 °C (dec.)	COc1cccc([C@H]2O[C@H](CC(=O)Nc3cccc(C(=O)O)n3)C(=O)N(CC(C)(C)CO)c3ccc(Cl)cc32)c1OC [Example 140, 6-[[[(3R,5S)-5-(2,3-Dimethoxyphenyl)-7-chloro-1-(3-hydroxy-2,2-dimethylpropyl)-2-oxo-1,2,3,5-tetrahydro-4,1-benzoxazepin-3-yl]acetyl]amino]-2-pyridinecarboxylic acid]
